Test results: patent US9951039B2, “Pyrimidines for treatment of bacterial infections” (The Hong Kong Polytechnic University, priority 2016, dated 2018)
≈ marks a conversion by molar mass, not a printed value.

Key:
S. aureus FtsZ = target: T1, S. aureus FtsZ (Staphylococcus aureus, UniProt P0A031); test: Saturation Transfer Difference (STD) NMR study; assay type: binding; conditions: 298K, line broadening and STD effect
T1 construct: 6-histidine tag; made in house; host or cells: E. coli BL21(DE3)
T1 sequence (P0A031 1-390): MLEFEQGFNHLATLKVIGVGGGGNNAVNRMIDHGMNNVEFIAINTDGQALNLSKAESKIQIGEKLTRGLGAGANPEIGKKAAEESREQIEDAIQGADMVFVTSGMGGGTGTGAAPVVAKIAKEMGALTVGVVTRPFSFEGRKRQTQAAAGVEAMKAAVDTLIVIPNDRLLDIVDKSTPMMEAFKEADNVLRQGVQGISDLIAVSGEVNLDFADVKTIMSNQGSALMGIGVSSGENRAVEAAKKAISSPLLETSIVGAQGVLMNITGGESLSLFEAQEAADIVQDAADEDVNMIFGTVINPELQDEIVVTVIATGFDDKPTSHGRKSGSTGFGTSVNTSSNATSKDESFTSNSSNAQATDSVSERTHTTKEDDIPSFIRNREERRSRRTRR
Protocol: Procedure for expression and purification of S. aureus FtsZ protein: S. aureus FtsZ protein was prepared as previous reported.^16a In brief, E. coli BL21(DE3) cells, transformed with a pRSET-A-S vector carrying S. aureus FtsZ with a 6-histidine tag attached, were streaked on a nutrient agar plate containing 50 μg/mL ampicillin. After overnight incubation at 37° C., a single colony was inoculated into 5 mL of Luria-Bertani (LB) medium in the presence of 50 μg/mL ampicillin, which was then incubated at 37° C., with shaking at 250 rpm for 16 h. […]
Procedure STD NMR study: STD NMR experiments were performed on a Bruker Avance III 600 NMR spectrometer equipped with a QCI cryoprobe at 298K. Spectra were recorded with a carrier set at 0.5 ppm for on-resonance irradiation and 30 ppm for off-resonance irradiation. Control spectra were recorded under identical conditions without compound to test for artifacts. Selective protein saturation was accomplished using a train of 40 Gauss-shaped pulses (50 ms with 1 ms delay between pulses) for a total saturation time of 2 s at an experimentally determined optimal power (7.7625 W on the probe); a T1p spinlock filter (20-50 ms) was incorporated to suppress protein resonances. STD spectra were recorded using a minimum of 128 scans and 32 k points covering a spectral width of 6600 Hz. […]

[1] = Compound solubility observed in aqueous medium of GTPase assay; assay type: physicochemical; conditions: higher concentration (>80 μM) causes precipitation in aqueous medium
Excerpt: Nonetheless, it seems very likely that compound 14av_amine16 suppresses the self-polymerization of FtsZ protein, probably via disrupting the GTPase hydrolysis activity of FtsZ protein.

[2] = system: S. aureus ATCC 29247 (ampicillin resistant strain); test: MIC against clinically isolated strain 1; assay type: cell-based; conditions: Staphylococcus aureus, ATCC29247
Protocol: (§1) Procedure of Antimicrobial susceptibility test: The MIC value of compounds was measured in the antimicrobial susceptibility test using the broth microdilution procedure in accordance with the CLSI guidelines.^21 Cation-adjusted Mueller Hinton broth (CA-MHB) was used for all the S. aureus strains in the assay. Cells in exponential phase of growth were diluted to approximately 5×10^5 cfu/mL. Stock solutions of each compound were freshly dissolved in dimethyl sulfoxide (DMSO). Then, serial dilutions of each compound in CA-MHB medium were added into 96-well microplate. The final percentage of DMSO in the assay was 1%. Control experiments were performed with 1% DMSO instead of the compound solution. After being incubated at 37° C. for 18 h, OD600 value of cells was measured on a microplate reader and the percentage of bacterial cell inhibition with respect to controls was calculated. The MIC value was defined as the lowest compound concentration at which the growth of bacteria was inhibited by ≥90%. Three independent assays were performed for each compound.
(§2) Results: Three compounds, namely 14av_amine16, 14dv_amine16 and 14dv_amine06, were selected to be tested against nine in-house clinically isolated bacterial strains including S. aureus ATCC29247, which is an ampicillin resistant strain, S. aureus ATCC BAA-41, ATCC BAA-1717, ATCC BAA-1720, ATCC 43300 which are methicillin resistant strains and four USA300 strains, (#417, #757, #1799 and #2690), which are the predominant strain type of community-associated MRSA strains in the United States.

[3] = system: USA300 #1799 (community-associated MRSA); test: MIC against clinically isolated strain 8; assay type: cell-based, S. aureus; conditions: Staphylococcus aureus
Protocol: as §1, §2

[4] = system: USA300 #757 (community-associated MRSA); test: MIC against clinically isolated strain 7; assay type: cell-based, S. aureus; conditions: Staphylococcus aureus
Protocol: as §1, §2

MRSA ATCC 43300 = test: Frequency of resistance (FOR) determination; assay type: cell-based, S. aureus; conditions: 8 folds of MIC, after 48 hours' incubation
Protocol: Procedure: MRSA ATCC 43300 cells were grown to late-exponential phase (1×10^9 CFU/mL) and spread on agars plates containing 1% DMSO or compound 14av_amine16 at 8 folds of MIC level. The plates were incubated for 48 hours to allow resistant mutants to grow. The spontaneous FOR was calculated as the number of resistance colonies divided by the number of CFUs originally plated. The assay was performed in triplicates.

SMILES: CCC(CC)c1cc(CCN2CCCN(Cc3ccc(C(F)(F)F)cc3)CC2)nc(-c2ccncc2)n1 [Compound 14av_amine16, 1-(2-(6-(pentan-3-yl)-2-(pyridin-4-yl)pyrimidin-4-yl)ethyl)-4-(4-(trifluoromethyl)benzyl)-1,4-diazepane]
- binding to FtsZ protein by STD NMR (S. aureus FtsZ): indeed bind to FtsZ protein
- compound solubility [1]: poor compound solubility
- MIC [2]: 8 µM (≈ 4.09 µg/mL)
- MIC [3]: 12 µM (≈ 6.14 µg/mL)
- MIC [4]: 12 µM (≈ 6.14 µg/mL)
- colonies on plates treated with compound (MRSA ATCC 43300): no colony was observed
